Columns and labels:
Assay type in all cases: physicochemical
[1] = Dynamic vapor sorption (DVS)
Protocol: DVS was measured via a SMS (Surface Measurement Systems) DVS Intrinsic. The relative humidity at 25° C. were calibrated against deliquescence point of LiCl, Mg(NO3)2 and KCl.
(onset temperature). Considering the low TGA weight loss and single sharp DSC endotherm, Form A was postulated to be an anhydrate. […] The HPLC purity of starting material was measured as 99.78 area % (see chromatogram of FIG. 6) and the impurity summary is listed in Table 2.

[2] = Physical and chemical stability of solid on storage (XRPD, HPLC purity)
Protocol: To evaluate the physical and chemical stability, Compound (1) Form A was stored in 3 conditions (40° C./75% RH; 25° C./60% RH; and 60° C.) for one and four weeks.

[3] = Kinetic solubility in bio-relevant media and H2O; details: for Final Form: 37° C.
Protocol: Solids were suspended in FaSSIF, FeSSIF, SGF and H2O with target conc. of ˜10 mg/mL. The suspensions were agitated on a rolling incubator at 25 rpm (in the incubator set at 37° C.) for 1, 4 and 24 hrs. At each time point, 1 mL of the suspension was pipetted out for centrifugation at 15000 rpm (3 min) and filtration through 0.45 μm membrane to obtain supernatant for HPLC solubility and pH tests, the residual solids were analyzed by XRPD.

[4] = 24-Hrs solubility in pH buffers; details: for Final Form: 24 hrs
Protocol: 24-Hrs solubility of Form A was measured in pH buffers (i.e., pH 2.0, 4.0, 6.0, 7.0, 8.0) at RT. Solids were suspended in pH buffers with target conc. of ˜10 mg/mL.

[5] = Solution stability in pH buffers; details: 37° C.
Protocol: Solution stability study was performed in pH 2.0/4.0/6.0/7.0 (24 hrs) and pH 8.0 (24 hrs and 96 hrs) buffers. Solids were dissolved with pH buffers with target conc. of ˜0.5 mg/ml to form clear solutions and stored at 37° C. for 24 hrs or 96 hrs.

[6] = all conditions (40° C./75% RH, 25° C./60% RH, 60° C.; one and four weeks)
[7] = pH 7.0 (50 mM Phosphate), 24 hrs
[8] = pH 8.0 (50 mM Phosphate), 24 hrs
[9] = pH 8.0 (50 mM Phosphate), 96 hrs

water uptake (DVS) ([1]; 25° C./80% RH): 0.024% | form change after DVS test (XRPD) ([1]; after DVS test): no form change | API (RRT 1.00) ([2]; 1 week, 25° C./60% RH): 99.92 % Area | Description ([2]; 1 week, 25° C./60% RH): White powder | Final Form ([2]; 1 week, 25° C./60% RH): Form A | Imp.1 (RRT 0.68) ([2]; 1 week, 25° C./60% RH): 0.08 % Area | Purity vs. initial (%) ([2]; 1 week, 25° C./60% RH): 100.0% | API (RRT 1.00) ([2]; 1 week, 40° C./75% RH): 99.89 % Area | Description ([2]; 1 week, 40° C./75% RH): White powder | Final Form ([2]; 1 week, 40° C./75% RH): Form A | Imp.1 (RRT 0.68) ([2]; 1 week, 40° C./75% RH): 0.11 % Area | Purity vs. initial (%) ([2]; 1 week, 40° C./75% RH): 100.0% | API (RRT 1.00) ([2]; 1 week, 60° C.): 99.90 % Area | Description ([2]; 1 week, 60° C.): White powder | Final Form ([2]; 1 week, 60° C.): Form A | Imp.1 (RRT 0.68) ([2]; 1 week, 60° C.): 0.10 % Area | Purity vs. initial (%) ([2]; 1 week, 60° C.): 100.0% | API (RRT 1.00) ([2]; 4 weeks, 25° C./60% RH): 99.90 % Area | Description ([2]; 4 weeks, 25° C./60% RH): White powder | Final Form ([2]; 4 weeks, 25° C./60% RH): Form A | Imp.1 (RRT 0.68) ([2]; 4 weeks, 25° C./60% RH): 0.10 % Area | Purity vs. initial (%) ([2]; 4 weeks, 25° C./60% RH): 100.0% | API (RRT 1.00) ([2]; 4 weeks, 40° C./75% RH): 99.90 % Area | Description ([2]; 4 weeks, 40° C./75% RH): White powder | Final Form ([2]; 4 weeks, 40° C./75% RH): Form A | Imp.1 (RRT 0.68) ([2]; 4 weeks, 40° C./75% RH): 0.10 % Area | Purity vs. initial (%) ([2]; 4 weeks, 40° C./75% RH): 100.0% | API (RRT 1.00) ([2]; 4 weeks, 60° C.): 99.90 % Area | Description ([2]; 4 weeks, 60° C.): White powder | Final Form ([2]; 4 weeks, 60° C.): Form A | Imp.1 (RRT 0.68) ([2]; 4 weeks, 60° C.): 0.10 % Area | Purity vs. initial (%) ([2]; 4 weeks, 60° C.): 100.0% | HPLC purity change on storage [2, 6]: no obvious HPLC purity change | form change on storage (XRPD) [2, 6]: no form change | Final Form ([3]; FaSSIF (pH 6.5), 1 hr): Form A | Final Form ([3]; FaSSIF (pH 6.5), 4 hr): Form A | Final Form ([3]; FaSSIF (pH 6.5), 24 hr): Form A | Final Form ([3]; FeSSIF (pH 5.0), 1 hr): Form A | Final Form ([3]; FeSSIF (pH 5.0), 4 hr): Form A | Final Form ([3]; FeSSIF (pH 5.0), 24 hr): Form A | Final Form ([3]; H2O (pH 6.5), 1 hr): Form A | Final Form ([3]; H2O (pH 6.5), 4 hr): Form A | Final Form ([3]; H2O (pH 6.5), 24 hr): Form A | Final Form ([3]; SGF (pH 1.8), 1 hr): Form A | Final Form ([3]; SGF (pH 1.8), 4 hr): Form A | Final Form ([3]; SGF (pH 1.8), 24 hr): Form A | form change after kinetic solubility test (XRPD) ([3]; bio-relevant media or H2O): No form change | Final Form ([4]; pH 2.0 (50 mM HCl—KCl)): Form A | Final Form ([4]; pH 4.0 (50 mM Citrate)): Form A | Final Form ([4]; pH 6.0 (50 mM Citrate)): Form A | Final Form ([4]; pH 7.0 (50 mM Phosphate)): Form A | Final Form ([4]; pH 8.0 (50 mM Phosphate)): Form A | form change after equilibrium solubility evaluation (XRPD) ([4]; pH buffers): no form change | API (RRT 1.00) ([5]; pH 2.0 (50 mM HCl—KCl), 24 hrs): 84.93 % Area | Imp. 1 (RRT 0.66) ([5]; pH 2.0 (50 mM HCl—KCl), 24 hrs): 0.15 % Area | Imp. 1 (RRT 0.70) ([5]; pH 2.0 (50 mM HCl—KCl), 24 hrs): 0.67 % Area | Imp. 1 (RRT 0.76) ([5]; pH 2.0 (50 mM HCl—KCl), 24 hrs): 14.25 % Area | Imp. 1 (RRT 1.05) ([5]; pH 2.0 (50 mM HCl—KCl), 24 hrs): — (—: <0.05 area %) | Purity vs. initial (%) ([5]; pH 2.0 (50 mM HCl—KCl), 24 hrs): 85.1% | degradation in solution ([5]; pH 2.0 and pH 4.0 buffers, 24 hrs): Degradation was observed | API (RRT 1.00) ([5]; pH 4.0 (50 mM Citrate), 24 hrs): 98.42 % Area | Imp. 1 (RRT 0.66) ([5]; pH 4.0 (50 mM Citrate), 24 hrs): 0.15 % Area | Imp. 1 (RRT 0.70) ([5]; pH 4.0 (50 mM Citrate), 24 hrs): — (—: <0.05 area %) | Imp. 1 (RRT 0.76) ([5]; pH 4.0 (50 mM Citrate), 24 hrs): 0.38 % Area | Imp. 1 (RRT 1.05) ([5]; pH 4.0 (50 mM Citrate), 24 hrs): 0.06 % Area | Purity vs. initial (%) ([5]; pH 4.0 (50 mM Citrate), 24 hrs): 98.5% | API (RRT 1.00) ([5]; pH 6.0 (50 mM Citrate), 24 hrs): 99.75 % Area | Imp. 1 (RRT 0.66) ([5]; pH 6.0 (50 mM Citrate), 24 hrs): 0.13 % Area | Imp. 1 (RRT 0.70) ([5]; pH 6.0 (50 mM Citrate), 24 hrs): — (—: <0.05 area %) | Imp. 1 (RRT 0.76) ([5]; pH 6.0 (50 mM Citrate), 24 hrs): 0.06 % Area | Imp. 1 (RRT 1.05) ([5]; pH 6.0 (50 mM Citrate), 24 hrs): 0.06 % Area | Purity vs. initial (%) ([5]; pH 6.0 (50 mM Citrate), 24 hrs): 99.8% | API (RRT 1.00) [5, 7]: 99.78 % Area | Imp. 1 (RRT 0.66) [5, 7]: 0.15 % Area | Imp. 1 (RRT 0.70) [5, 7]: — (—: <0.05 area %) | Imp. 1 (RRT 0.76) [5, 7]: — (—: <0.05 area %) | Imp. 1 (RRT 1.05) [5, 7]: 0.07 % Area | Purity vs. initial (%) [5, 7]: 99.9% | API (RRT 1.00) [5, 8]: 99.81 % Area | Imp. 1 (RRT 0.66) [5, 8]: 0.13 % Area | Imp. 1 (RRT 0.70) [5, 8]: — (—: <0.05 area %) | Imp. 1 (RRT 0.76) [5, 8]: — (—: <0.05 area %) | Imp. 1 (RRT 1.05) [5, 8]: 0.06 % Area | Purity vs. initial (%) [5, 8]: 100.0% | API (RRT 1.00) [5, 9]: 99.83 % Area | Imp. 1 (RRT 0.66) [5, 9]: 0.13 % Area | Imp. 1 (RRT 0.70) [5, 9]: — (—: <0.05 area %) | Imp. 1 (RRT 0.76) [5, 9]: — (—: <0.05 area %) | Imp. 1 (RRT 1.05) [5, 9]: 0.04 % Area | Purity vs. initial (%) [5, 9]: 100.0%
SMILES: CC(C)(C(=O)N1CCOc2c(C#N)cncc2C1)C(F)F [Form A, 4-(3,3-difluoro-2,2-dimethyl-propanoyl)-3,5-dihydro-2H-pyrido[3,4-f][1,4]oxazepine-9-carbonitrile]

From patent publication US20240317776A1, “SOLID FORMS OF 4-(3,3-DIFLUORO-2,2-DIMETHYL-PROPANOYL)-3,5-DIHYDRO-2H-PYRIDO[3,4-F][1,4]OXAZEPINE-9-CARBONITRILE” (Denali Therapeutics Inc., priority 2022, published 2024)
